Measured values from patent US12097174B2, “Methods and agents that enhance myogenic progenitor cell engraftment” (President and Fellows of Harvard College, priority 2018, dated 2024).

Test system: mouse satellite cells
Experiment: Mouse satellite cell transplantation into pre-injured TA muscle, engraftment by bioluminescence imaging (BLI)
Assay type: in vivo
Settings: for BLI radiance (mean±SEM): 10 μM NFA (n=13) or 5 μM LPA (n=17) prior to transplant, vehicle 8,214,000±1,462,346; for engraftment efficiency of mouse satellite cells: 4 h at 37° C. with 10 μM NFA or 5 μM LPA, 5000 cells per recipient
Description: Specifically, BLI radiance (mean±SEM) for muscle precursors treated with 10 μM NFA or 5 μM LPA prior to transplant were 27,236,923±6,849,754 p/s (n=13) and 25,637,059±4,410,195 p/s (n=17), respectively, in comparison to 8,214,000±1,462,346 p/s (n=15) vehicle-treated cells (1-way ANOVA between vehicle-treated group and either NFA or LPA treated group, p≤0.01) (FIGS. 8A-8C).
To this end, mouse satellite cells were again sorted from double-transgenic (luc+GFP+) mice and exposed them to NFA, LPA, or vehicle (DMSO) under the optimal dose conditions established using the fish model (see above; 4 h. treatment at 37° C. with 10 μM of NFA or 5 μM of LPA), prior to transplant. Compound-treated cells were then recovered and, after washing out the media containing the compounds (NFA, LPA or DMSO), counted and transplanted at 5000 cells per recipient into the pre-injured TA muscles of non-transgenic FVB hosts. The kinetics of muscle engraftment were subsequently assessed by weekly BLI imaging of transplanted limbs. Similar to the fish experiments, both NFA and LPA enhanced the engraftment efficiency of mouse satellite cells in these in vivo transplantation assays (FIGS. 14C and 14D), indicating conserved effects of these pro-myogenic compounds on mammalian muscle precursor cells.
Mouse satellite cells were isolated as previously described (Maesner et al., 2016; Sherwood et al., 2004; Xu et al., 2013). 25 μl (0.03 mg/ml) of cardiotoxin (CDTX) (Latoxan) was injected 24 h prior to transplantation into the TA muscle of recipient mice (FVB/NJ). Luc-GFP tagged satellite cells were isolated and plated on a collagen/laminin-coated plate and treated with NFA (10 μM), LPA (5 μM) or DMSO, as the vehicle control, in culture media for 4 hours at 37° C. The culture media contained 78% F10 (GIBCO), 20% horse serum (Atlanta Biologics), 1% penicillin-streptomycin (Invitrogen), 1% GlutaMAX (Invitrogen), and 5 ng/ml bFGF (Sigma). After 4 hours, cells were washed with DPBS, harvested, and counted, followed by transplantation of 5000 satellite cells intramuscularly into the CDTX pre-injured TA of FVB recipients.
Mice were anesthetized with isoflurane and weighed. 150 mg/kg of luciferin (Goldbio) was administered by IP injection. BLI was acquired using IVIS Spectrum every 2 minutes, at F-stop=1.0 at 5 min after luciferin injection. The acquired images were analyzed and the highest captured radiance in the region of interest (ROI) was measured.

| Compound | BLI radiance (mean±SEM) | engraftment efficiency of mouse satellite cells |
| --- | --- | --- |
| O=C(O)c1cccnc1Nc1cccc(C(F)(F)F)c1 [NFA, niflumic acid] | 27,236,923±6,849,754 p/s | enhanced |
| lysophosphatidic acid [LPA] | 25,637,059±4,410,195 p/s | enhanced |
